From US9005646B2, “Compositions for repair of defects in tissues, and methods of making the same” (LifeNet Health, priority 2005, dated 2015)

Assays:
athymic nude mice = experiment: Osteoinductivity bioassay of irradiated compositions with radioprotectant, implanted into athymic nude mice; format: in vivo; settings: for Passed Osteoinductivity: radioprotectant added to homogenized fascia slurry of tissue repair composition, post-gamma irradiation, implanted into athymic nude mice
Description: (§1) Multiple radioprotectants (Table 1) were investigated over a range of concentrations and the handling characteristics of the resultant products were semi-quantitatively analyzed post-gamma irradiation. Those products that passed the semi-quantitative analysis went on to be implanted into athymic nude mice as a bioassay to assess osteoinductivity.
The method to add the radioprotectant was consistent for each radioprotectant investigated. The slurry was made as described in example 1 (heating and blending cycles) and once completed, the radioprotectant of choice was added to the slurry in the form it was supplied from the manufacturer (powder or liquid).

[1] = Semi-quantitative analysis of handling characteristics post-gamma irradiation; format: physicochemical; settings: putty/paste tissue repair composition; sterilizing dose of gamma irradiation; 100 mM where radioprotectant present
Description: To meet the current U.S. FDA regulatory standards and market expectations, a product must be sterile to a sterility assurance level of 1×10^−6 (SAL). […] The composition crumbled apart releasing the bone matrix.
In order to manufacture a tissue repair composition, in the form of a putty/paste, having desirable handling characteristics post-irradiation at dose designed to achieve a SAL of 1×10^−6, it was thought that the addition of one or more radioprotectants to the composition would produce a product with the desirable handling properties because the radioprotectant will act as a free radical scavenger during the irradiation sterilization process and would protect the handling characteristics of the putty/paste composition. An addition facet was that the radioprotectant must not negatively interfere with the biological activity over time (shelf life).
as §1

Compound	impact on osteoinductivity (athymic nude mice; 100 mM radioprotectant in composition, after sterilizing dose of gamma irradiation)	Passed Osteoinductivity (athymic nude mice)	handling characteristics after gamma irradiation [1]
N=C(N)NN [Aminoguanidine]	no negative impact	Yes	no negative impact
L-Ascorbic Acid 2-phosphate sesquimagnesium salt	–	Yes	–
L-Ascorbic Acid, salt	–	Yes	–
